Experimental data as given in patent US20090118135A1, “METHODS AND COMPOUNDS FOR REGULATING APOPTOSIS” (The Burnham Institute, priority 2007, published 2009).
pIC50: −log10 of the molar value. “And” between values parts separate entries of the source, which are not always exact repeats. Equal values may be shown once.

Tests used:
GST-Bcl-B [1] = target: T1, GST-Bcl-B (Homo sapiens, UniProt Q9HD36); experiment: Bcl-B/FITC-TR3-r8 fluorescence polarization competition (displacement) assay, HTS and dose-response; details: Hill coefficient of Bcl-B dose-response curve
T1 sequence (Q9HD36 1-182 limits assumed): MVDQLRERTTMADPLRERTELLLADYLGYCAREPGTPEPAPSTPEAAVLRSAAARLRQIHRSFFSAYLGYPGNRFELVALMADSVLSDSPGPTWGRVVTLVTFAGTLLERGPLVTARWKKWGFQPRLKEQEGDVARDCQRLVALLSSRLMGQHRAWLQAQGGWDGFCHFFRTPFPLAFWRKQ

GST-Bcl-B [2] = target: T1, GST-Bcl-B; experiment: biochemical

C(=N\c1ccc(/N=C/c2ccccn2)cc1)/c1ccccc1 [Compound 5491977]
Bcl-B H Coefficient (GST-Bcl-B [1]): 1.819
pIC50 (GST-Bcl-B [2]): 5.36

Cc1ccc(C(=O)c2coc3c2C(=O)C(=O)C(Cl)=C3Cl)cc1 [Compound 5169132]
Bcl-B H Coefficient (GST-Bcl-B [1]): 1.432
pIC50 (GST-Bcl-B [2]): 5.21

O=C1C=CC2=C3Oc4c(ccc5cc(O)ccc45)C(c4ccccc4C(=O)O)C3C=CC2=C1 (stereo not shown) [Compound 5466725]
Bcl-B H Coefficient (GST-Bcl-B [1]): 3.03
pIC50 (GST-Bcl-B [2]): 5.77 and 5.78

Cc1ccc(C)n1-c1ccc(OCC(=O)O)cc1 [Compound 5988031]
Bcl-B H Coefficient (GST-Bcl-B [1]): 0.6411
pIC50 (GST-Bcl-B [2]): 5.06

Cc1cc(C)nc(NC(=N)Nc2ccc(N)cc2)n1 [Compound 5805360]
Bcl-B H Coefficient (GST-Bcl-B [1]): 1.878
pIC50 (GST-Bcl-B [2]): 5.27

CCOc1ccc(/C=C(/NC(=O)c2ccc(C)cc2)C(=O)NCCO)cc1 [Compound 5650022]
Bcl-B H Coefficient (GST-Bcl-B [1]): 1.428
pIC50 (GST-Bcl-B [2]): 4.88

Cc1cc(I)c2c(c1)C1C=CCC1C(C(=O)O)N2 (stereo not shown) [Compound 6048134]
Bcl-B H Coefficient (GST-Bcl-B [1]): 1.406
pIC50 (GST-Bcl-B [2]): 4.68

Oc1cccc(/C=N/C2=C(c3ccco3)N=C3C=CC=CC32)c1 (stereo not shown) [Compound 5612880]
Bcl-B H Coefficient (GST-Bcl-B [1]): 0.5836
pIC50 (GST-Bcl-B [2]): 5.04

Cn1c(=O)cc2c3c(c(Nc4ccc(C=O)cc4)ccc31)C(=O)c1ccccc1-2 [Compound 5719776]
Bcl-B H Coefficient (GST-Bcl-B [1]): 2.489
pIC50 (GST-Bcl-B [2]): 5.09

O=C(O)c1cccc2c1NC(c1ccc([N+](=O)[O-])cc1)C1CC=CC21 (stereo not shown) [Compound 5585430]
Bcl-B H Coefficient (GST-Bcl-B [1]): 1.735
pIC50 (GST-Bcl-B [2]): 5.27

COc1cc(N)ccc1-n1c(C)ccc1C [Compound 5953790]
Bcl-B H Coefficient (GST-Bcl-B [1]): 2.719
pIC50 (GST-Bcl-B [2]): 4.48

O=C(O)c1cccc2c1NC(c1cccc(Cl)c1Cl)C1CC=CC21 (stereo not shown) [Compound 6048905]
Bcl-B H Coefficient (GST-Bcl-B [1]): 2.809
pIC50 (GST-Bcl-B [2]): 5.59 and 5.57

COC(=O)C1=C(C)N(C)C(=O)NC1c1cc2c(cc1[N+](=O)[O-])OCO2 (stereo not shown) [Compound 5607960]
Bcl-B H Coefficient (GST-Bcl-B [1]): 1.821
pIC50 (GST-Bcl-B [2]): 4.76

O=C(O)c1cccc(-c2ccc(/C=N/Nc3ccc([N+](=O)[O-])cn3)o2)c1 [Compound 5908920]
Bcl-B H Coefficient (GST-Bcl-B [1]): 0.6738
pIC50 (GST-Bcl-B [2]): 5.02

O=C(O)c1ccc2c(c1)C1C=CCC1C(c1cccc([N+](=O)[O-])c1)N2 (stereo not shown) [Compound 5475298]
Bcl-B H Coefficient (GST-Bcl-B [1]): 1.336
pIC50 (GST-Bcl-B [2]): 5.76

O=C1C=CC(=O)C(/C(=C/NCc2ccccc2)[N+](=O)[O-])=C1 [Compound 5261378]
Bcl-B H Coefficient (GST-Bcl-B [1]): 3.214
pIC50 (GST-Bcl-B [2]): 5.24

O=C(O)c1ccc([N+](=O)[O-])c2c1NC(c1ccccc1)C1CC=CC21 (stereo not shown) [Compound 5853021]
Bcl-B H Coefficient (GST-Bcl-B [1]): 2.481
pIC50 (GST-Bcl-B [2]): 5.41

COc1ccc(OC)c(C=NNC(=O)C2C=CN(CC(=O)c3ccccc3)C=C2)c1 [Compound 5483976]
Bcl-B H Coefficient (GST-Bcl-B [1]): 2.127
pIC50 (GST-Bcl-B [2]): 5.87

COc1ccc(Nc2ccc(N)cc2)cc1 [Compound 5529774]
Bcl-B H Coefficient (GST-Bcl-B [1]): 2.718
pIC50 (GST-Bcl-B [2]): 5.14

Nc1n[nH]c2ncc3cc4ccccc4nc3c12 [Compound 6051011]
Bcl-B H Coefficient (GST-Bcl-B [1]): 2.36
pIC50 (GST-Bcl-B [2]): 5.43 and 5.54

CN(C)c1ccc(NC(=O)/C=C\C(=O)O)cc1 [Compound 5374579]
Bcl-B H Coefficient (GST-Bcl-B [1]): 2.167
pIC50 (GST-Bcl-B [2]): 4.69

Cc1c(Cl)ccc2c1NC(C(=O)O)C1CC=CC21 (stereo not shown) [Compound 5659221]
Bcl-B H Coefficient (GST-Bcl-B [1]): 0.6773
pIC50 (GST-Bcl-B [2]): 5.28

Cc1ccc2oc3cc(NCCCN(C)C)c4c(=O)c5ccccc5c(=O)c4c3[nH]c2c1 [Compound 5468863]
Bcl-B H Coefficient (GST-Bcl-B [1]): 1.907
pIC50 (GST-Bcl-B [2]): 6.17

Cc1ccc(-c2cc(C(=O)O)c3cc(Br)ccc3n2)o1 [Compound 6131498]
Bcl-B H Coefficient (GST-Bcl-B [1]): 1.896
pIC50 (GST-Bcl-B [2]): 4.78

CCSc1nc(NN)c2c3c(sc2n1)CN(C)CC3 [Compound 5683054]
Bcl-B H Coefficient (GST-Bcl-B [1]): 1.332
pIC50 (GST-Bcl-B [2]): 5.13

CN1CCN(CN2C(=O)/C(=N\NC(=O)CSc3nc4ccccc4s3)c3ccccc32)CC1 [Compound 6062681]
Bcl-B H Coefficient (GST-Bcl-B [1]): 2.531
pIC50 (GST-Bcl-B [2]): 4.89
